Results taken from the supplement of paper PMC10307832.

Columns and labels:
Assay in all cases: relative viability (nuclei count vs DMSO), 5 days (fraction); higher = more cells survive
[1] = compound: C(C(=O)C(=O)O)Br [Bromopyruvate] + CC1(C)CCC(c2ccc(Cl)cc2)=C(CN2CCN(c3ccc(C(=O)NS(=O)(=O)c4ccc(N[C@H](CCN5CCOCC5)CSc5ccccc5)c(S(=O)(=O)C(F)(F)F)c4)cc3)CC2)C1 [Navitoclax] (partner 0.5 µM)
Method in brief: (§1)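 Dosing by pin tool came one day after lung cancer cell lines were seeded in 1536-well plates, using either one drug or a fixed anchor-drug dose plus five library-drug doses (not always all listed) in √10 steps. After 5 days, nuclei were counted on 4× images. Relative viability is treated-well nuclei count divided by vehicle-well nuclei count, and values are medians of duplicate plates.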

[2] = compound: CC(O)(CS(=O)(=O)c1ccc(F)cc1)C(=O)Nc1ccc(C#N)c(C(F)(F)F)c1 [Bicalutamide] + N=C(N)NC(=N)NCCc1ccccc1 [Phenformin] (partner 250 µM)
Method in brief: as §1

Bromopyruvate = compound: C(C(=O)C(=O)O)Br [Bromopyruvate]
Method in brief: (§2)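 On vehicle-anchored 1536-well plates, lung cancer cell lines held overnight at 37 °C were pinned with five library-drug doses (not always all listed) spaced by √10. With no medium change over 5 days, they were then fixed, permeabilised and Hoechst-stained in one step and imaged at 4×. MetaXpress counted nuclei, and viability is the median across plates of treated-well over vehicle-well nuclei. Acceptance needed control CV below 25% and at least one doubling.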

Bicalutamide = compound: CC(O)(CS(=O)(=O)c1ccc(F)cc1)C(=O)Nc1ccc(C#N)c(C(F)(F)F)c1 [Bicalutamide]
Method in brief: as §2

Cell Line | relative viability ([1]; first compound 1 µM) | relative viability ([1]; first compound 3.162 µM) | relative viability ([1]; first compound 10 µM) | relative viability ([1]; first compound 31.62 µM) | relative viability ([1]; first compound 100 µM) | relative viability ([2]; first compound 0.08 µM) | relative viability ([2]; first compound 0.253 µM) | relative viability ([2]; first compound 0.8 µM) | relative viability ([2]; first compound 2.53 µM) | relative viability (Bromopyruvate; 1 µM) | relative viability (Bromopyruvate; 3.162 µM) | relative viability (Bromopyruvate; 10 µM) | relative viability (Bromopyruvate; 31.62 µM) | relative viability (Bromopyruvate; 100 µM) | relative viability (Bicalutamide; 0.08 µM) | relative viability (Bicalutamide; 0.253 µM) | relative viability (Bicalutamide; 0.8 µM) | relative viability (Bicalutamide; 2.53 µM)
NCI-H322M | 1.23 | 1.2 | 1.22 | 1.16 | 1.3 | 0.821 | 0.789 | 0.904 | 0.859 | 0.93 | 0.956 | 0.865 | 0.94 | 1.04 | 0.969 | 0.941 | 1.05 | 1.06
HCC-827 | 1.02 | 1 | 0.99 | 1.12 | 0.996 | 0.405 | 0.316 | 0.412 | 0.443 | 1.04 | 1.02 | 0.988 | 1.06 | 1.07 | 1.08 | 0.842 | 1.07 | 1.03
SW 1573 | 0.927 | 1.17 | 1.02 | 1.11 | 0.487 | 0.413 |  | 0.377 | 0.366 | 1.03 | 0.995 | 1.13 | 0.925 | 0.385 | 1.02 | 0.757 | 1.15 | 0.969
NCI-H1975 | 1.18 | 1.26 | 1.08 | 1.31 | 0.994 | 0.4 | 0.409 | 0.442 | 0.37 | 1.02 | 0.962 | 1 | 0.939 | 0.906 | 0.935 | 0.942 | 0.998 | 0.775
NCI-H1651 | 1.04 | 0.97 | 1.07 | 0.96 | 1.2 | 0.36 | 0.377 | 0.411 | 0.345 | 1.01 | 0.991 | 1.07 | 0.958 | 0.924 | 0.995 | 0.93 | 1.16 | 0.972
NCI-H460 | 1.11 | 1.17 | 1.58 | 1.1 | 1.16 | 0.559 | 0.524 | 0.834 | 0.52 | 0.99 | 0.972 | 1.13 | 1 | 1.01 | 0.974 | 0.952 | 1.07 | 0.988
LCLC-97TM1 |  |  | 0.538 | 0.492 | 0.316 | 0.442 | 0.426 | 0.463 | 0.443 | 1.02 | 1.06 | 1 | 0.974 | 0.859 | 1.04 | 0.974 | 1.29 | 0.862
NCI-H838 | 1.11 | 1.16 | 1.3 | 1.17 | 1.28 | 0.588 | 0.573 | 0.748 | 0.337 | 0.994 | 0.972 | 1.05 | 0.995 | 0.894 | 0.95 | 0.908 | 1.05 | 0.76
NCI-H1355 | 0.936 | 0.982 | 1 | 0.901 | 0.91 | 0.456 | 0.44 | 0.481 | 0.492 | 1.01 | 1.03 | 1.08 | 0.959 | 0.953 | 1.03 | 0.918 | 1.09 | 0.946
HOP-62 | 1.05 | 0.961 | 1.12 | 1.08 | 0.899 | 0.681 | 0.651 | 0.769 | 0.698 | 1.06 | 0.981 | 0.936 | 1.03 | 1.03 | 1.12 | 0.988 | 1.06 | 1.03
NCI-H2087 | 0.974 | 1.08 | 0.987 | 0.966 | 1.02 | 0.539 | 0.449 | 0.642 | 0.435 | 0.947 | 1.07 | 1.09 | 1.04 | 0.974 | 1.09 | 1.06 | 1.25 | 1.07
